Results taken from US9840478B2 (MERCK SHARP & DOHME CORP., priority 2013, dated 2017).

The compounds below were run on HIV-1 (H9IIIB strain) (assay: Cell-based HIV infection assay using a reporter (Cell-Based), MT4-GFP cells). Details: Human immunodeficiency virus 1, MT4-GFP cells infected with HIV-1 H9IIIB; 50% normal human serum; mean of at least two independent experiments; read-out: Cell-based IP.
In short: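 MT4-GFP cells (HIV LTR-driven GFP) infected 24 h with HIV-1 H9IIIB at low MOI, then washed and plated with compounds in RPMI + 50% normal human serum, 0.4% DMSO final. Green cells counted at 24 and 48 h; R0 = 48 h/24 h ratio, inhibition normalized to DMSO and triple-drug control; IC50 from 4-parameter fit.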

Row | SMILES | IC50
1 | C[C@@H]1CNC[C@H](CCc2c(F)cccc2NC(=O)[C@@H](N)[C@H](c2cncc(F)c2)c2cccc(Cl)c2)N1S(=O)(=O)c1ccccc1 [Example 261, (βS)-3-chloro-N-(3-fluoro-2-{2-[(2S,6R)-6-methyl-1-(phenylsulfonyl)piperazin-2-yl]ethyl}phenyl)-β-(5-fluoropyridin-3-yl)-L-phenylalaninamide] | 70 nM
2 | CC[C@H]1CNC[C@H](CCc2c(F)cccc2NC(=O)[C@@H](N)[C@@H](c2ccc(F)cc2)c2cc(F)cc(F)c2)N1S(C)(=O)=O [Example 262, (βS)-β-(3,5-difluorophenyl)-N-(2-{2-[(2S,6S)-6-ethyl-1-(methylsulfonyl)piperazin-2-yl]ethyl}-3-fluorophenyl)-4-fluoro-L-phenylalaninamide] | 25 nM
3 | CC[C@@H]1CNC[C@H](CCc2c(F)cccc2NC(=O)[C@@H](N)[C@@H](c2ccc(F)cc2)c2cc(F)cc(F)c2)N1S(C)(=O)=O [Example 263, (βS)-β-(3,5-difluorophenyl)-N-(2-{2-[(2S,6R)-6-ethyl-1-(methylsulfonyl)piperazin-2-yl]ethyl}-3-fluorophenyl)-4-fluoro-L-phenylalaninamide] | 77 nM
4 | C[C@@H]1CNC[C@H](CCc2c(F)cccc2NC(=O)[C@@H](N)[C@@H](c2ccc(Cl)cc2)C2CCOCC2)N1S(=O)(=O)c1ccc(C(F)F)cc1 [Example 264, (βR)-4-chloro-N-(2-{2-[(2S,6R)-1-{[4-(difluoromethyl)phenyl]sulfonyl}-6-methylpiperazin-2-yl]ethyl}-3-fluorophenyl)-β-(tetrahydro-2H-pyran-4-yl)-L-phenylalaninamide] | 69 nM
5 | CC[C@@H]1CNC[C@H](CCc2c(F)cccc2NC(=O)[C@@H](N)[C@@H](c2ccc(Cl)cc2)C2CCOCC2)N1S(C)(=O)=O [Example 265, (βR)-4-chloro-N-(2-{2-[(2S,6R)-6-ethyl-1-(methylsulfonyl)piperazin-2-yl]ethyl}-3-fluorophenyl)-β-(tetrahydro-2H-pyran-4-yl)-L-phenylalaninamide] | 260 nM
6 | COC(=O)NC(C(=O)Nc1cccc(F)c1CC[C@H]1CNC[C@@H](C)N1S(=O)(=O)c1ccc(C(F)F)cc1)[C@@H](c1ccc(Cl)cc1)C1CCOCC1 (some centres unmarked) [Example 266] | 26 nM
7 | CC[C@@H]1CNC[C@H](CCc2c(F)cccc2NC(=O)[C@@H](NC(=O)OC)[C@@H](c2ccc(Cl)cc2)C2CCOCC2)N1S(=O)(=O)c1ccccc1 [Example 267, methyl ((1R,2S)-1-(4-chlorophenyl)-3-((2-(2-((2S,6R)-6-ethyl-1-(phenylsulfonyl)piperazin-2-yl)ethyl)-3-fluorophenyl)amino)-3-oxo-1-(tetrahydro-2H-pyran-4-yl)propan-2-yl)carbamate] | 24 nM
8 | CC[C@H]1CNC[C@H](CCc2c(F)cccc2NC(=O)[C@@H](NC(=O)OC)[C@@H](c2ccc(Cl)cc2)C2CCOCC2)N1S(=O)(=O)c1ccccc1 [Example 268, methyl ((1R,2S)-1-(4-chlorophenyl)-3-((2-(2-((2S,6S)-6-ethyl-1-(phenylsulfonyl)piperazin-2-yl)ethyl)-3-fluorophenyl)amino)-3-oxo-1-(tetrahydro-2H-pyran-4-yl)propan-2-yl) carbamate] | 14 nM
9 | CC[C@H]1CNC[C@H](CCc2c(F)cccc2NC(=O)[C@@H](NC(=O)OC)[C@@H](c2ccc(F)cc2)c2cc(F)cc(F)c2)N1S(C)(=O)=O [Example 269, (βS)-β-(3,5-difluorophenyl)-N-(2-{2-[(2S,6S)-6-ethyl-1-(methylsulfonyl)piperazin-2-yl]ethyl}-3-fluorophenyl)-4-fluoro-Nα-(methoxycarbonyl)-L-phenylalaninamide] | 9.9 nM
10 | CC[C@@H]1CNC[C@H](CCc2c(F)cccc2NC(=O)[C@@H](NC(=O)OC)[C@@H](c2ccc(F)cc2)c2cc(F)cc(F)c2)N1S(C)(=O)=O [Example 270, (βS)-β-(3,5-difluorophenyl)-N-(2-{2-[(2S,6R)-6-ethyl-1-(methylsulfonyl)piperazin-2-yl]ethyl}-3-fluorophenyl)-4-fluoro-Nα-(methoxycarbonyl)-L-phenylalaninamide] | 24 nM
11 | CC(C)[C@H](c1ccc(Cl)cc1)[C@H](N)C(=O)Nc1cccc(F)c1CC[C@H]1CNC[C@H](C)N1S(=O)(=O)c1ccccc1Cl [Example 271, (βR)-4-chloro-N-[2-(2-{(2S,6S)-1-[(2-chlorophenyl)sulfonyl]-6-methylpiperazin-2-yl}ethyl)-3-fluorophenyl]-β-(1-methylethyl)-L-phenylalaninamide] | 1200 nM
12 | COC(=O)N[C@H](C(=O)Nc1cncc(F)c1CC[C@H]1CNC[C@H](C)N1S(=O)(=O)c1ccccc1Cl)[C@@H](c1ccc(F)cc1)c1cc(F)cc(F)c1 [Example 272, (βS)-N-[4-(2-{(2S,6S)-1-[(2-chlorophenyl)sulfonyl]-6-methylpiperazin-2-yl}ethyl)-5-fluoropyridin-3-yl]-β-(3,5-difluorophenyl)-4-fluoro-Nα-(methoxycarbonyl)-L-phenylalaninamide] | 49 nM
13 | C[C@H]1CNC[C@H](CCc2c(F)cncc2NC(=O)[C@@H](N)[C@@H](c2ccc(Cl)cc2)C2CCOCC2)N1S(=O)(=O)c1ccc(Cl)cc1 [Example 273, (βR)-4-chloro-N-[4-(2-{(2S,6S)-1-[(4-chlorophenyl)sulfonyl]-6-methylpiperazin-2-yl}ethyl)-5-fluoropyridin-3-yl]-β-(tetrahydro-2H-pyran-4-yl)-L-phenylalaninamide] | 11 nM
14 | COC(=O)N[C@H](C(=O)Nc1cncc(F)c1CC[C@H]1CNC[C@H](C)N1S(=O)(=O)c1ccccc1)[C@@H](c1ccc(Cl)cc1)C1CCOCC1 [Example 274, (βR)-4-chloro-N-(5-fluoro-4-{2-[(2S,6S)-6-methyl-1-(phenylsulfonyl)piperazin-2-yl]ethyl}pyridin-3-yl)-Nα-(methoxycarbonyl)-β-(tetrahydro-2H-pyran-4-yl)-L-phenylalaninamide] | 22 nM
15 | COC(=O)N[C@H](C(=O)Nc1cccc(F)c1CC[C@H]1CNC[C@@H](C)N1S(=O)(=O)c1ccccc1)C1(c2ccc(Cl)cc2)CCOCC1 [Example 275, methyl {(1S)-1-[4-(4-chlorophenyl)tetrahydro-2H-pyran-4-yl]-2-[(3-fluoro-2-{2-[(2S,6R)-6-methyl-1-(phenylsulfonyl)piperazin-2-yl]ethyl}phenyl)amino]-2-oxoethyl}carbamate] | 19 nM
16 | COC(=O)N[C@H](C(=O)Nc1cccc(F)c1CC[C@H]1CNC[C@H](C)N1S(=O)(=O)c1ccccc1)C1(c2ccc(Cl)cc2)CCOCC1 [Example 276, methyl {(1S)-1-[4-(4-chlorophenyl)tetrahydro-2H-pyran-4-yl]-2-[(3-fluoro-2-{2-[(2S,6S)-6-methyl-1-(phenylsulfonyl)piperazin-2-yl]ethyl}phenyl)amino]-2-oxoethyl}carbamate] | 9.1 nM
17 | C[C@H]1CNC[C@H](CCc2c(F)cncc2NC(=O)[C@@H](N)[C@@H](c2ccc(Cl)cc2)C2CCOCC2)N1S(=O)(=O)c1ccccc1 [Example 277, (βR)-4-chloro-N-(5-fluoro-4-{2-[(2S,6S)-6-methyl-1-(phenylsulfonyl)piperazin-2-yl]ethyl}pyridin-3-yl)-β-(tetrahydro-2H-pyran-4-yl)-L-phenylalaninamide] | 15 nM
18 | C[C@H]1CNC[C@H](CCc2c(F)cccc2NC(=O)[C@@H](N)C2(c3cc(F)cc(F)c3)CCOCC2)N1S(=O)(=O)c1ccccc1 [Example 278, (2S)-2-amino-2-[4-(3,5-difluorophenyl)tetrahydro-hydro-2H-pyran-4-yl]-N-(3-fluoro-2-{2-[(2S,6S)-6-methyl-1-(phenylsulfonyl)piperazin-2-yl]ethyl}phenyl) ethanamide] | 140 nM
19 | COC(=O)N[C@H](C(=O)Nc1cncc(F)c1CC[C@H]1CNC[C@@H](C)N1S(=O)(=O)c1ccccc1)[C@@H](c1ccc(Cl)cc1)C1CCOCC1 [Example 279, (βR)-4-chloro-N-(5-fluoro-4-{2-[(2S,6R)-6-methyl-1-(phenylsulfonyl)piperazin-2-yl]ethyl}pyridin-3-yl)-Nα-(methoxycarbonyl)-β-(tetrahydro-2H-pyran-4-yl)-L-phenylalaninamide] | 16 nM
20 | C[C@@H]1CNC[C@H](CCc2c(F)cncc2NC(=O)[C@@H](N)[C@@H](c2ccc(Cl)cc2)C2CCOCC2)N1S(=O)(=O)c1ccccc1 [Example 280, (βR)-4-chloro-N-(5-fluoro-4-{2-[(2S,6R)-6-methyl-1-(phenylsulfonyl)piperazin-2-yl]ethyl}pyridin-3-yl)-β-(tetrahydro-2H-pyran-4-yl)-L-phenylalaninamide] | 16 nM
21 | COC(=O)N[C@H](C(=O)Nc1cncc(F)c1CC[C@H]1CNC[C@@H](C)N1S(=O)(=O)c1ccc(Cl)cc1)[C@@H](c1ccc(Cl)cc1)C1CCOCC1 [Example 281, (βR)-4-chloro-N-[4-(2-{(2S,6R)-1-[(4-chlorophenyl)sulfonyl]-6-methylpiperazin-2-yl}ethyl)-5-fluoropyridin-3-yl]-Nα-(methoxycarbonyl)-β-(tetrahydro-2H-pyran-4-yl)-L-phenylalaninamide] | 13 nM
22 | COC(=O)N[C@H](C(=O)Nc1cncc(F)c1CC[C@H]1CNC[C@H](C)N1S(=O)(=O)c1ccc(Cl)cc1)[C@@H](c1ccc(Cl)cc1)C1CCOCC1 [Example 282, (βR)-4-chloro-N-[4-(2-{(2S,6S)-1-[(4-chlorophenyl)sulfonyl]-6-methylpiperazin-2-yl}ethyl)-5-fluoropyridin-3-yl]-Nα-(methoxycarbonyl)-β-(tetrahydro-2H-pyran-4-yl)-L-phenylalaninamide] | 11 nM
23 | COC(=O)N[C@H](C(=O)Nc1cccc(F)c1CC[C@H]1CNC[C@@H](C)N1S(=O)(=O)c1ccccc1)[C@@H](c1cc(F)cc(F)c1)C1CCOCC1 [Example 283, (βR)-3,5-difluoro-N-(3-fluoro-2-{2-[(2S,6R)-6-methyl-1-(phenylsulfonyl)piperazin-2-yl]ethyl}phenyl)-Nα-(methoxycarbonyl)-β-(tetrahydro-2H-pyran-4-yl)-L-phenylalaninamide] | 14 nM
